Experimental data reported in patent publication US9949979B2, “Use of inhibitors of the activity or function of PI3K” (NOVARTIS AG, priority 2011, dated 2018).

Columns and labels:
PI3K alpha = target: T1, PI3K alpha (Homo sapiens, UniProt P42336); experiment: Enzymatic PI3K alpha isoform inhibition (lipid kinase activity, Kinase-Glo); assay type: biochemical; conditions: Enzymatic Assay
T1 construct: His tag (C); made in house; host or cells: baculovirus; Tn5 (Trichoplusia ni) or TiniPro insect cells
Protocol: (§1) 1 Determination of Enzymatic PI3K Alpha and PI3K Delta Isoform Inhibition
(§2) 1.1 Test of Lipid Kinase Activity
(§3) The kinase reaction is performed in a final volume of 50 μl per well of a half area COSTAR, 96 well plate. The final concentrations of ATP and phosphatidyl inositol in the assay are 5 μM and 6 μg/mL, respectively. The reaction is started by the addition of PI3 kinase, e.g. PI3 kinase δ.
(§4) p110δ. The components of the assay are added per well as follows: • 10 μl test compound in 5% DMSO per well in […]. • Total activity is determined by addition 10 μl of 5% vol/vol DMSO in the first 4 wells of column 1 and the last 4 wells of column 12. • The background is determined by addition of 10 μM control compound to the last 4 wells of column 1 and the first 4 wells of column 12. • 2 mL ‘Assay mix’ are prepared per plate: • 1.912 mL of HEPES assay buffer • 8.33 μl of 3 mM stock of ATP giving a final concentration of 5 μM per well • 1 μl of [^33P]ATP on the activity date giving 0.05 μCi per well • 30 μl of 1 mg/mL PI stock giving a final concentration of 6 μg/mL per well • 5 μl of 1 M stock MgCl2 giving a final concentration of 1 mM per well • 20 μl of the assay mix are added per well. • 2 mL ‘Enzyme mix’ are prepared per plate (x* μl PI3 kinase p110β in 2 mL of kinase buffer). The ‘Enzyme mix’ is kept on ice during addition to the assay plates. The volume of enzyme is dependent on the enzymatic activity of the batch in use. • 20 μl ‘Enzyme mix’ are added/well to start the reaction. • The plate is then incubated at room temperature for 90 minutes. • The reaction is terminated by the addition of 50 μl WGA-SPA bead (wheat germ agglutinin-coated Scintillation Proximity Assay beads) suspension per well. • The assay plate is sealed using TopSeal-S (heat seal for polystyrene microplates, PerkinElmer LAS [Deutschland] GmbH, Rodgau, Germany) and incubated at room temperature for at least 60 minutes. • The assay plate is then centrifuged at 1500 rpm for 2 minutes using the Jouan bench top centrifuge (Jouan Inc., Nantes, France). • The assay plate is counted using a Packard TopCount, each well being counted for 20 seconds.
(§5) The final concentrations of ATP and phosphatidyl inositol (PI) in the assay are 1 μM and 10 μg/mL, respectively. The reaction is started by the addition of ATP.
(§6) The components of the assay are added per well as follows:
(§7) IC50 is determined by a four parameter curve fitting routine that comes along with “excel fit”.
(§8) To start the reaction, 10 μl of 10 nM PI3 kinase and 5 μg/mL 1-alpha-phosphatidylinositol (PI) are added into each well followed by 10 μl of 2 μM ATP. The reaction is performed until approx 50% of the ATP is depleted, and then stopped by the addition of 20 μl of Kinase-Glo solution (Promega Corp., Madison, Wis., USA). The stopped reaction is incubated for 5 minutes and the remaining ATP is then detected via luminescence. IC50 values are then determined.

PI3K delta = PI3K delta (Homo sapiens, UniProt O00329); experiment: Enzymatic PI3K delta isoform inhibition (lipid kinase activity, Kinase-Glo); assay type: biochemical; parameters: for the full-length p110-d subunit are generated and fused by overlapping PCR; His tag (C); made in house; host or cells: baculovirus; Tn5 (Trichoplusia ni) or TiniPro insect cells; conditions: Enzymatic Assay
Protocol: as §1, §2, §3, §4, §5, §6, §7, §8

TLR9 [1] = experiment: TLR9-induced IL-6 in murine splenocytes (CpG1826, ELISA); assay type: cell-based, C57BL/6 mice; conditions: Mus musculus, Splenocyte; read-out: TLR9-ligand induced IL-6 in murine splenocytes IC50
Protocol: 2.2 Determination of TLR9-Induced IL-6 in Murine Splenocytes
Spleens were dissected from C57BL/6 mice immediately following euthanasia. Excess fat was trimmed from the spleens prior to mashing the spleen through a […] cell strainer using a plunger from a 5 ml syringe. A single cell suspension was prepared and the volume was adjusted to 15 ml in a 50 ml Falcon tube using cold PBS. Cells were centrifuged at 1500 rpm for 5 minutes at 4° C. degrees prior to removal of supernatant and re-suspension in 5 ml of red blood cell lysis buffer per spleen and incubation for 5 minutes at room temperature. Ice cold PBS (30 ml) was added to the cells prior to centrifugation at 1500 rpm for 5 minutes at 4° C. The supernatant was removed and the cells were washed twice with 40 ml of murine splenocyte culture media (MSCM). […] Cells were re-suspended in 10-20 ml of MSCM and counted using a Countess cell counter. […]
After overnight culture, cells were transferred to 96-well V-bottomed plates and centrifuged at 2000 rpm for 5 minutes at room temperature. Subsequently 150 μl of each culture supernatant was transferred to 96-well flat-bottomed plates and […] were measured using commercially available mouse IL-6 sandwich ELISA kit (R&D systems). […] IL-6 levels were measured using a SpectraMax 190 Plate Reader (450 nm) and analyzed using SoftMax Pro and GraphPad Prism software.

TLR9 [2] = experiment: TLR9-induced IFNalpha in human PBMC (CpG2216, AlphaLISA); assay type: cell-based; conditions: read-out: TLR9-ligand induced IFNα in human PBMC IC50
Protocol: (§9) 2.4 Determination of TLR9-Induced IFNalpha in Human Peripheral Blood Mononuclear Cells (PBMCs) and Isolated Plasmacytoid Dendritic Cells (pDCs)
Human blood (ca. 75 ml) was collected in 10 S-Monovette tubes containing Heparin (S-Monovette 7.5 mL NH Heparin 16 IU/mL blood; Starstedt). Leucosep™ tubes (30 mL #227290; Greiner Bio-one) were prepared by addition of 15 ml lymphocyte separation medium LSM1077™ per tube (#J15-004; PAA Laboratories) and centrifugation for 30 sec at 1000 g. Some 25 ml blood was transferred to Leucosep™ tubes following dilution with equal parts of PBS (without Ca2+/Mg2+; #14190-094). […] The PBMC were counted using a Countess® Automated cell counter (sample was pre-diluted 1:10 in Media, prior to the addition of equal volume (10 μl) of Trypan Blue). […]
(§10) Compounds were pre-diluted in 100% v/v DMSO (#41640-100 mL; Sigma-Aldrich), followed by transfer in Media (to achieve a final DMSO concentration of 0.25%). […] Plates were briefly centrifuged (200×g for 2 min at 22° C.) and supernatant samples (30 μl) removed for quantification of IFNα levels.
For quantification of IFNalpha the human interferon AlphaLISA Kit (#AL264F) from PerkinElmer was used. […] Data were collected for analysis and quantification of IFNα levels.
Data were analysed using Excel XL fit 4.0 (Microsoft) with XLfit add-in (IDBS; version 4.3.2). […]

TLR9 [3] = experiment: TLR9-induced IFNalpha in isolated human pDCs (CpG2216, AlphaLISA); assay type: cell-based; conditions: read-out: TLR9-ligand induced IFNα in human pDCs IC50
Protocol: as §9
Human PBMCs were prepared using Buffy Coats as source material from healthy donations (approx. 50 ml obtained from Blutspendezentrum SRK Basel) and processed as indicated above. […]
as §10
For quantification of IFNalpha the human interferon AlphaLISA Kit (#AL264F) from PerkinElmer was used. […] After incubation, the plates were read with an EnVision™ multiplate reader equipped with the ALPHA option using the instrument's own “AlphaScreen standard settings” (e.g. total measurement time: 550 ms, Laser 680 nm excitation time: 180 ms, mirror: D640 as, emission filter: M570w, center wavelength 570 nm, bandwidth 100 nm, transmittance 75%). Data were collected for analysis and quantification of IFNα levels.
Data were analysed using Excel XL fit 4.0 (Microsoft) with XLfit add-in (IDBS; version 4.3.2). Specific IFNα concentrations were determined following extrapolation to standard curves using human IFNα B (2b). […]

T1 sequence (P42336 with tags, fused parts or gaps limits assumed): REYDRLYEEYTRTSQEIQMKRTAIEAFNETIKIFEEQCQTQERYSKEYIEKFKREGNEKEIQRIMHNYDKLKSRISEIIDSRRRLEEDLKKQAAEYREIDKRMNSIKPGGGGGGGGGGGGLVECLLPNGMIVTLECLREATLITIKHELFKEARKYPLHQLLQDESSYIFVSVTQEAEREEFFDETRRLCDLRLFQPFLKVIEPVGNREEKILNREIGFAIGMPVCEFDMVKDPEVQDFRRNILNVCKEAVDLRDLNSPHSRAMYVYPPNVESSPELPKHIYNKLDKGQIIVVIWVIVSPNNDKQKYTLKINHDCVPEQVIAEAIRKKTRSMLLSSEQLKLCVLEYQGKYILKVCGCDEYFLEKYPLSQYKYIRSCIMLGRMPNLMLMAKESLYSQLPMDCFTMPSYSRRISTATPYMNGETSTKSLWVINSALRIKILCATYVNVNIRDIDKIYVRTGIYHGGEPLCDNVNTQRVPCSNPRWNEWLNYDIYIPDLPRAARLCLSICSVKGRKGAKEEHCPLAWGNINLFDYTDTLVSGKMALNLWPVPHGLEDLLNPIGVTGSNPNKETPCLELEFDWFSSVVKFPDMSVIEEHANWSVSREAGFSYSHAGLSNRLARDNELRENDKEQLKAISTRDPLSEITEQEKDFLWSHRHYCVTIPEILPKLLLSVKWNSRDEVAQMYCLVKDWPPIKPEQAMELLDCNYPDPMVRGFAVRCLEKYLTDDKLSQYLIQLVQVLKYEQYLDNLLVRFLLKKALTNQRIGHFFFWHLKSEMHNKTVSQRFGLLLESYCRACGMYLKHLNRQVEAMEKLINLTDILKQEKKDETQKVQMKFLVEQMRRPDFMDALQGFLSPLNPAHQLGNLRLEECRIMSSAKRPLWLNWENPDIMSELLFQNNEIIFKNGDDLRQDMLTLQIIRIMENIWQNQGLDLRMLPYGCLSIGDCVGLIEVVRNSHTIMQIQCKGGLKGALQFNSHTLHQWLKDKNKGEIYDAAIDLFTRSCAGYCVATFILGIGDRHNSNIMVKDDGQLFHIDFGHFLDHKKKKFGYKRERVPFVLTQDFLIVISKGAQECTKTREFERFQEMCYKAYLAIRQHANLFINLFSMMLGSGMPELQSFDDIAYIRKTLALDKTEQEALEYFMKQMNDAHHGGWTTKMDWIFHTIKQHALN
Sequence of PI3K delta (O00329 with tags, fused parts or gaps limits assumed): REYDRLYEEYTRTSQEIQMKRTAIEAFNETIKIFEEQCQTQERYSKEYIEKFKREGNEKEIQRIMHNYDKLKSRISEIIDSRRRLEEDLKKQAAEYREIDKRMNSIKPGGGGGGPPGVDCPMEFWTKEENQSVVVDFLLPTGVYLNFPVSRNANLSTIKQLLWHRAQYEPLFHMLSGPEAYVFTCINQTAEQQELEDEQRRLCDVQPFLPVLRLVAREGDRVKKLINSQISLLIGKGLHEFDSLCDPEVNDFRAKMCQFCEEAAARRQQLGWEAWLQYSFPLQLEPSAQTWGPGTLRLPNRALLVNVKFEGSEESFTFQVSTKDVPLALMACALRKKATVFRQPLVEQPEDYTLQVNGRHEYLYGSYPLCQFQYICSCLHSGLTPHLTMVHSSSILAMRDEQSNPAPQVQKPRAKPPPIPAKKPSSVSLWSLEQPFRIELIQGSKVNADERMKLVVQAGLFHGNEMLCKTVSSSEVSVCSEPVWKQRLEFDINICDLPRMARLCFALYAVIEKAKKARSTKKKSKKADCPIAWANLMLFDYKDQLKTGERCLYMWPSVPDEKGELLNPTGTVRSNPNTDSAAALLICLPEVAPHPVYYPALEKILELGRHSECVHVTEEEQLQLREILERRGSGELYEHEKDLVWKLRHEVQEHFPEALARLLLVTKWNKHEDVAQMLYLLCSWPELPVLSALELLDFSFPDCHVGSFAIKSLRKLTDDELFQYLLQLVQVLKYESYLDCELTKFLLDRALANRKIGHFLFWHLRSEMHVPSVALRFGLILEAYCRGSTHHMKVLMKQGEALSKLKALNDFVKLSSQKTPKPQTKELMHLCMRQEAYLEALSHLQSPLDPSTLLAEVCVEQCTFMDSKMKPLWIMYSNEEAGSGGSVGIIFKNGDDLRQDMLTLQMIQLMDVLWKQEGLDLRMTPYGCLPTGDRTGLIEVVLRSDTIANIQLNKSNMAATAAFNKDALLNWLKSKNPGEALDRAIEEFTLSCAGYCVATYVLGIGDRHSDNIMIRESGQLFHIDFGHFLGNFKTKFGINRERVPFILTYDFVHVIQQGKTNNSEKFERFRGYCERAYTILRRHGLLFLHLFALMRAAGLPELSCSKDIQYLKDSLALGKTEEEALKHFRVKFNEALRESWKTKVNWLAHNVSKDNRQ

Work on `CC(=O)N1CCN(C(=O)c2cccc(-c3ncnc4ccc(-c5ccc(C)nc5)cc34)c2)CC1` [6′] yielded an IC50 (PI3K alpha) of 589 nM and an IC50 (PI3K delta) of 8.62 nM.
Molecule `COc1ccc(-c2ccc3ncnc(-c4cccc(C(=O)N5CCN(C(C)=O)CC5)c4)c3c2)cc1C(F)(F)F` [9′] has an IC50 (PI3K alpha) of 1400 nM and an IC50 (PI3K delta) of 10 nM.
Molecule `Cc1ccc(-c2ccc3ncnc(-c4cccc(C(=O)N5CCN(C)CC5)c4)c3c2)cn1` [19′] has an IC50 (PI3K alpha) of 678 nM and an IC50 (PI3K delta) of 11.5 nM.
For `COc1ccc(-c2ccc3ncnc(-c4cccc(C(=O)N5CCN(C)CC5)c4)c3c2)cc1S(=O)(=O)N1CCCC1` [22′, (3-{6-[4-Methoxy-3-(pyrrolidine-1-sulfonyl)-phenyl]-quinazolin-4-yl}-phenyl)-(4-methyl-piperazin-1-yl)-methanone], the IC50 (PI3K alpha) was 790 nM and the IC50 (PI3K delta) was 11.5 nM.
`CC1(C)CN(C(=O)c2cncc(-c3ncnc4ccc(-c5cnc(N)nc5)cc34)c2)CCO1` [65′] showed an IC50 (PI3K alpha) of 640 nM and an IC50 (PI3K delta) of 10 nM.
Molecule `COc1ccc(-c2ccc3ncnc(-c4cccc(C(=O)N5CCNC(C)(C)C5)c4)c3c2)cn1` [88′] has an IC50 (PI3K delta) of at most 2.67 nM.
In the case of `COc1ncc(N2CCc3ncnc(O[C@H]4CCN(C(=O)C5CCOCC5)C4)c3C2)cc1C` [Example 1, {(S)-3-[6-(6-Methoxy-5-methyl-pyridin-3-yl)-5,6,7,8-tetrahydro-pyrido[4,3-d]pyrimidin-4-yloxy]-pyrrolidin-1-yl}-(tetrahydro-pyran-4-yl)-methanone], the IC50 (TLR9 [1]) is reported as 327 nM, the IC50 (TLR9 [2]) is reported as 211 nM and the IC50 (TLR9 [3]) is reported as 50 nM.
